Assay results as given in the supplement of paper PMC10933113.
Where a name gives a salt, the structure may show the parent alone. ± gives the uncertainty stated by the source.

Tests used:
[1] = tested on: KeratinoSens (HaCaT ARE-luciferase) cells; assay: AC50 of Nrf2/ARE luciferase induction; higher = less potent; conditions: exposure time: 24 h
THP-1 = assay: efficacy of IL-8 induction relative to DMSO (% activity); higher = stronger induction; conditions: exposure time: 18 h
[2] = tested on: lysine peptide Ac-RFAAKAA-COOH; assay: efficacy of lysine peptide change (negative = depletion) (% activity); higher = less depletion; conditions: incubation time: 24 h
[3] = tested on: cysteine peptide Ac-RFAACAA-COOH; assay: efficacy of cysteine peptide change (negative = depletion) (% activity); higher = less depletion; conditions: incubation time: 24 h
[4] = tested on: KeratinoSens (HaCaT ARE-luciferase) cells; assay: efficacy of ARE luciferase induction relative to DMSO (% activity over DMSO); higher = stronger induction; conditions: exposure time: 24 h
[5] = tested on: cysteine peptide Ac-RFAACAA-COOH; assay: AC50 of cysteine peptide concentration-response (direction given by sign of efficacy); higher = less potent; conditions: incubation time: 24 h
[6] = tested on: KeratinoSens (HaCaT ARE-luciferase) cells; assay: cytotoxicity AC50 (CellTiter-Fluor viability); higher = less cytotoxic; conditions: exposure time: 24 h

SMILES	efficacy of lysine peptide change [2]	efficacy of cysteine peptide change [3]	AC50 [5] [µM]	AC50 of Nrf2/ARE luciferase induction [1] [µM]	efficacy of IL-8 induction (THP-1)	efficacy of ARE luciferase induction [4]	cytotoxicity AC50 [6] [µM]
CN1C[C@H](C(=O)N[C@]2(C)O[C@@]3(O)[C@@H]4CCCN4C(=O)[C@H](Cc4ccccc4)N3C2=O)C=C2c3cccc4[nH]cc(c34)C[C@H]21 [Ergotamine D-tartrate*]	14.3 ± 3.5	-98.5 ± 6.4	11.4 ± 2.6	23.1	15.3 ± 4.1	61.1 ± 17	
C=C1C[C@@H]2[C@H](CC[C@]3(C)C(=O)CC[C@@H]23)[C@@]2(C)C=CC(=O)C=C12 [Exemestane]	97.5 ± 6.3	-9.57 ± 9.8		33	3.01 ± 5.2	109 ± 64	
CC#Cc1cc(C)nc(Nc2ccccc2)n1 [Mepanipyrim]	48.4 ± 24	-2.96 ± 5.1		47.4	4.67 ± 8.1	73.3 ± 15	
COc1ccc(C(c2ccc(OC)cc2)C(Cl)(Cl)Cl)cc1 [Methoxychlor]	-3.51 ± 15	2.72 ± 4.7		43.2	21.1 ± 3.3	50.9 ± 18	
CN(C)c1ccc(N)cc1 [N,N-Dimethyl-p-phenylenediamine]	-17.1 ± 8.3	-130 ± 19	8.18 ± 2.3	17.1	21 ± 7.2	84.5 ± 29	
O=[N+]([O-])c1c(Cl)c(Cl)c(Cl)c(Cl)c1Cl [Pentachloronitrobenzene]	5.1 ± 8.8	-3.67 ± 6.3		42.1	12.2 ± 11	47.4 ± 32	
C[C@@H]1O[C@@H](O[C@@H]2C=C3CC[C@@H]4[C@H](CC[C@]5(C)[C@@H](c6ccc(=O)oc6)CC[C@]45O)[C@@]3(C)CC2)[C@H](O)[C@H](O)[C@H]1O [Proscillaridin]	14.3 ± 11	2.01 ± 3.5		0.27	38.2 ± 14	246 ± 170	0.51 ± 0.11
CC(COc1ccc(Oc2ccccc2)cc1)Oc1ccccn1 (stereo not drawn) [Pyriproxyfen]	-7.08 ± 11	8.09 ± 7		34.9	4.2 ± 1.8	83.9 ± 13	
CC(C)=CC1C(C(=O)OCc2coc(Cc3ccccc3)c2)C1(C)C (stereo not drawn) [Resmethrin]	-58 ± 4.8	-122 ± 8.3	58.1 ± 19	46.5	4.15 ± 7.2	69.7 ± 30	
OC[P+](CO)(CO)CO [Tetrakis(hydroxymethyl)phosphonium SO4]	-40.3 ± 14	43.1 ± 6.6		29.4	4.18 ± 7.2	126 ± 16	
NNC(N)=S [Thiosemicarbazide]	9.67 ± 17	-40.9 ± 11		15.8	35.8 ± 29	64.8 ± 15	28.3 ± 3.2
CCCOC/C(=N\c1ccc(Cl)cc1C(F)(F)F)n1ccnc1 [Triflumizole]	41.1 ± 13	4.17 ± 7.2		63.9	38.3 ± 1.3	134 ± 58	
COP(=O)(OC)O/C(=C\Cl)c1cc(Cl)c(Cl)cc1Cl [Z-Tetrachlorvinphos]	75.2 ± 24	4.88 ± 8.5		41.8	1.71 ± 3	72.1 ± 13	53.6 ± 16

Continued, in another order:

efficacy of lysine peptide change [2]	efficacy of cysteine peptide change [3]	AC50 [5] [µM]	SMILES	AC50 of Nrf2/ARE luciferase induction [1] [µM]	efficacy of IL-8 induction (THP-1)	efficacy of ARE luciferase induction [4]	cytotoxicity AC50 [6] [µM]
-2 ± 3.5	-4.99 ± 8.6		O=C(Oc1ccccc1)c1cccc(C(=O)Oc2ccccc2)c1 [Diphenyl isophthalate]	29.8	0	56.2 ± 20	
-20.5 ± 4.3	-99.4 ± 8.8	28.3 ± 9.3	C=C1CC[C@H](O)C/C1=C/C=C1\CCC[C@]2(C)[C@@H]([C@H](C)/C=C/[C@H](C)C(C)C)CC[C@@H]12 [Ergocalciferol*]	34.2	20.2 ± 3.7	78.7 ± 43	
107 ± 12	-93.5 ± 7.5	0.29 ± 0.07	CCOc1ccc2nc3cc(N)ccc3c(N)c2c1 [Ethacridine lactate monohydrate]	29.4	13.6 ± 2.8	86.2 ± 47	
35.1 ± 5	2.67 ± 4.6		CCOc1ccc2nc(S(N)(=O)=O)sc2c1 [Ethoxzolamide]	25.3	10.3 ± 4.8	58.7 ± 28	
11.4 ± 10	2.81 ± 4.9		C/C=C1\C(=O)C[C@H]2[C@@H]3CCC4=CC(=O)CC[C@]4(C)[C@H]3CC[C@]12C [Guggulsterone Z]	53.6	7.24 ± 12	135 ± 63	
166 ± 21	38.5 ± 11		C=CCOC(Cn1ccnc1)c1ccc(Cl)cc1Cl (stereo not drawn) [Imazalil sulfate]	29.9	0	40.5 ± 36	
-2.31 ± 13	26.5		CC(C)=CCC1=C(O)c2ccccc2C(=O)C1=O [Lapachol]	26.7	25.8 ± 1.6	65.3 ± 5.4	
-12.9 ± 12	1.07 ± 9.6		O=C(O)Cn1c(C(=O)Nc2nc(-c3ccccc3Cl)cs2)cc2ccccc21 [Lintitript]	32.9	8.96 ± 8.3	155 ± 87	
-2.87 ± 17	-3.44 ± 6		COc1ccc2cc(CCC(C)=O)ccc2c1 [Nabumetone]	3.98	0.27 ± 5.5	124 ± 44	7.94
39.7 ± 4.7	-16.7 ± 14		O=C1Nc2ccccc2C1(c1ccc(O)cc1)c1ccc(O)cc1 [Oxyphenisatin]	19	0	47.8 ± 12	
-25.8 ± 6.1	-26.9 ± 24		O=CC(=O)c1ccccc1 [Phenyl glyoxal]	35.5	0	522 ± 80	
10.5 ± 18	3.16 ± 5.5		Clc1ccccc1-c1nc(-c2ccncc2)no1 [Pifexole]	11.4	4.35 ± 7.5	60.8 ± 7.6	
-12.4 ± 20	54.9		CC(C)=CCOc1ccc(/C=C/C(=O)c2ccc(OCC=C(C)C)cc2OCC(=O)O)cc1 [Sofalcone]	33	0	521 ± 240	
85.3 ± 9.9	-29.7 ± 11		O=C1OC(OC(=O)c2cccnc2Nc2cccc(C(F)(F)F)c2)c2ccccc21 (stereo not drawn) [Talniflumate]	35.5	9.09 ± 8.3	1280 ± 66	
6.09 ± 18	-91.9 ± 9.5	33.5 ± 7.5	O=C(O)Cc1cc(I)c(Oc2cc(I)c(O)c(I)c2)c(I)c1 [Tetrac]	43.1	0	377 ± 69	
81.7 ± 28	-43 ± 15		CCN(CC)CCOc1ccc2c(c1)C(=O)c1cc(OCCN(CC)CC)ccc1-2 [Tilorone]	22.1	27.2 ± 3.2	293 ± 85	12.6 ± 1.4
-10.8 ± 18	-22.8 ± 5	19.9	CC(C)CCCCCCCOC(=O)c1ccc(C(=O)OCCCCCCCC(C)C)c(C(=O)OCCCCCCCC(C)C)c1 [Triisodecyl trimellitate]	42.2	13.5 ± 0.9	72.5 ± 41	
11.4 ± 21	0		O=C(CCCCCCC(=O)Nc1ccccc1)NO [Vorinostat (SAHA)]	11.7	7.76 ± 8.9	597 ± 130	11.4 ± 2.1
